Measurements published in ChEMBL document CHEMBL1201862, “PubChem BioAssay data set” (2004).
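Five concentrations, 48 hours, 96-well plates. GI50 marks 50% less growth.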 Active and inactive are the calls of the source. No stated cut-off is given here; in the data, active = GI50 up to about 1.1 µM and inactive = higher.

What was measured:
Assay in all cases: growth of human tumour cells (NCI), 48 h
[1] = system: KM-20L2
[2] = system: HCT-15
[3] = system: K562
[4] = system: HT-29
[5] = system: UACC-62
[6] = system: SNB-78
[7] = system: A549
[8] = system: RXF 393
[9] = system: SK-MEL-28
[10] = system: UACC-257
[11] = system: LOX IMVI
[12] = system: NCI-H23
[13] = system: HOP-62
[14] = system: SF-268
[15] = system: 786-0
[16] = system: RPMI-8226
[17] = system: OVCAR-3
[18] = system: IGROV-1
[19] = system: TK-10
[20] = system: MOLT-4
[21] = system: HL-60
[22] = system: OVCAR-8
[23] = system: HOP-18
[24] = system: SNB-19
[25] = system: OVCAR-5
[26] = system: M19-MEL
[27] = system: U-251
[28] = system: A498
[29] = system: SK-OV-3
[30] = system: ACHN
[31] = system: CAKI-1
[32] = system: COLO 205
[33] = system: SF-295
[34] = system: DMS-114
[35] = system: DMS-273
[36] = system: SNB-75
[37] = system: HOP-92
[38] = system: NCI-H226
[39] = system: SK-MEL-5
[40] = system: SR
[41] = system: OVCAR-4
[42] = system: SW-620
[43] = system: NCI-H522
[44] = system: NCI-H460
[45] = system: SN12C
[46] = system: HCC 2998
[47] = system: SF-539
[48] = system: SK-MEL-2
[49] = system: KM12
[50] = system: EKVX
[51] = system: UO-31
[52] = system: Malme-3M
[53] = system: LXFL 529
[54] = system: HCT-116

`COC(=O)C12OCC34C(CC5C(C)C6=CC(=O)OC6=CC5(C)C3C(O)C1O)OC(=O)C(O)C24` (centres undefined) was tested, and the GI50 [1] was 0.957 µM (active), the GI50 [2] was 1.48 µM and the GI50 [3] was 0.205 µM (active). The GI50 [4] was 0.217 µM (active), the GI50 [5] was 0.319 µM (active) and the GI50 [6] was 0.474 µM (active). For the same molecule, the GI50 [7] was 1.1 µM (active), the GI50 [8] was 0.493 µM (active) and the GI50 [9] was 0.169 µM (active). For the same molecule, the GI50 [10] was 1.5 µM (inactive), the GI50 [11] was 0.157 µM (active) and the GI50 [12] was 0.238 µM (active). The GI50 [13] was 0.78 µM (active), the GI50 [14] was 0.504 µM (active) and the GI50 [15] was 0.594 µM (active). For the same molecule, the GI50 [16] was 0.0809 µM (active), the GI50 [17] was 0.655 µM (active) and the GI50 [18] was 0.23 µM (active). The GI50 [19] was 1.42 µM (inactive), the GI50 [20] was 0.153 µM (active) and the GI50 [21] was 0.314 µM (active). For the same molecule, the GI50 [22] was 0.935 µM (active), the GI50 [23] was 0.676 µM (active) and the GI50 [24] was 0.0371 µM (active). For the same molecule, the GI50 [25] was 2.56 µM (inactive), the GI50 [26] was 0.192 µM (active) and the GI50 [27] was 0.233 µM (active). The GI50 [28] was 0.544 µM (active), the GI50 [29] was 5.16 µM (inactive) and the GI50 [30] was 0.895 µM (active). For the same molecule, the GI50 [31] was 4.08 µM (inactive), the GI50 [32] was 6.43 µM (inactive) and the GI50 [33] was 1.53 µM (inactive). The GI50 [34] was 0.859 µM (active), the GI50 [35] was 0.178 µM (active) and the GI50 [36] was 0.399 µM (active). For the same molecule, the GI50 [37] was 0.231 µM (active), the GI50 [38] was 0.293 µM (active) and the GI50 [39] was 0.0794 µM (active). For the same molecule, the GI50 [40] was < 0.01 µM (active), the GI50 [41] was 1.25 µM (inactive) and the GI50 [42] was 0.497 µM (active). For the same molecule, the GI50 [43] was 0.533 µM (active), the GI50 [44] was 0.204 µM (active) and the GI50 [45] was 1.48 µM (inactive). The GI50 [46] was 0.156 µM (active), the GI50 [47] was 0.103 µM (active) and the GI50 [48] was 0.446 µM (active). For the same molecule, the GI50 [49] was 1.21 µM (inactive), the GI50 [50] was 0.716 µM (active) and the GI50 [51] was 16.1 µM (inactive). For the same molecule, the GI50 [52] was 0.159 µM (active), the GI50 [53] was 0.101 µM (active) and the GI50 [54] was 0.306 µM (active).
